Laboratory results as given in patent publication EP0908457B1, “3-(1,2-benzisothiazol- and isoxazol-5-Y1)-2,4(1H,3H)-pyrimidinedione or thione and 3-(1,2-benzisothiazol- and isoxazol-5-y1)-4(3H)-pyrimidinone or thione herbicidal agents” (BASF AKTIENGESELLSCHAFT, priority 1997, dated 1999).

Columns and labels:
[1] = tested on: Oryza sativa, (L.) Tebonnet; assay: Rice tolerance to post-transplant applications under flooded paddy conditions (Example 187), ORYSAT (Rice, Tebonnet); conditions: for ORYSAT: herbicidal effect rating 0-9, three to four weeks after treatment
Sagittaria pygmaea, L. = assay: Preemergence weed control under flooded paddy conditions, SAGPY (Arrowhead (Pygmaea)); type: in vivo; conditions: flooded paddy; for herbicidal effect rating, SAGPY / SAGPY: preemergence weeds; for herbicidal effect rating, SAGPY / SAGPY herbicidal effect rating: rated three to four weeks after treatment; for SAGPY herbicidal effect rating: preemergence; for SAGPY: herbicidal effect rating 0-9, three to four weeks after treatment; as to herbicidal effect rating, SAGPY: meaning of each grade not given here
[2] = tested on: Cyperus serotinus, Rottb.; assay: Preemergence weed control under flooded paddy conditions, CYPSE (Flatsedge); type: in vivo; conditions: for herbicidal effect rating, CYPSE / CYPSE: preemergence weeds; for herbicidal effect rating, CYPSE / CYPSE herbicidal effect rating: rated three to four weeks after treatment; for CYPSE herbicidal effect rating: preemergence; for CYPSE: herbicidal effect rating 0-9, three to four weeks after treatment; as to herbicidal effect rating, CYPSE: meaning of each grade not given here
[3] = tested on: Echinochloa oryzoides (Ard.) Fritsch.; assay: Preemergence weed control under flooded paddy conditions, ECHORC (Watergrass (Calif.)); type: in vivo; conditions: flooded paddy; for herbicidal effect rating, ECHORC / ECHORC: preemergence weeds; for herbicidal effect rating, ECHORC / ECHORC herbicidal effect rating: rated three to four weeks after treatment; for ECHORC herbicidal effect rating: preemergence; for ECHORC: herbicidal effect rating 0-9, three to four weeks after treatment; as to herbicidal effect rating, ECHORC: meaning of each grade not given here
Cyperus iria = assay: Preemergence weed control under flooded paddy conditions, CYPIR (Rice Flatsedge); type: in vivo; conditions: flooded paddy; for herbicidal effect rating, CYPIR / CYPIR: preemergence weeds; for herbicidal effect rating, CYPIR / CYPIR herbicidal effect rating: rated three to four weeks after treatment; for CYPIR herbicidal effect rating: preemergence; for CYPIR: herbicidal effect rating 0-9, three to four weeks after treatment; as to herbicidal effect rating, CYPIR: meaning of each grade not given here
[4] = tested on: Monochoria vaginalis, Presl.; assay: Preemergence weed control under flooded paddy conditions, MOOVA (Monochoria); type: in vivo; conditions: flooded paddy; for herbicidal effect rating, MOOVA / MOOVA: preemergence weeds; for herbicidal effect rating, MOOVA / MOOVA herbicidal effect rating: rated three to four weeks after treatment; for MOOVA herbicidal effect rating: preemergence; for MOOVA: herbicidal effect rating 0-9, three to four weeks after treatment; as to herbicidal effect rating, MOOVA: meaning of each grade not given here
[5] = Rate 0.1250 kg/ha, rated three to four weeks after treatment
[6] = Rate 0.0320 kg/ha, rated three to four weeks after treatment
[7] = Rate 0.0620 kg/ha, rated three to four weeks after treatment
[8] = Rate 0.2500 kg/ha, rated three to four weeks after treatment

Cn1c(C(F)(F)F)cc(=O)n(-c2ccc3snc(COC(CF)CF)c3c2)c1=O [Example 207, 3-{3-{[2-Fluoro-1-(fluoromethyl)ethoxy]methyl}-1,2-benzisothiazol-5-yl}-1-methyl-6-(trifluoromethyl)-2,4(1H,3H)-pyrimidinedione]
herbicidal effect rating, ORYSAT (rice tolerance) ([1]; 0.2500 kg/ha, rated three to four weeks after treatment): 7.5
ORYSAT herbicidal effect rating ([1]; Rate 0.0313 kg/ha, rated three to four weeks after treatment): 5.0
ORYSAT herbicidal effect rating ([1]; Rate 0.0625 kg/ha, rated three to four weeks after treatment): 6.0
ORYSAT herbicidal effect rating [1, 5]: 7.0
herbicidal effect rating, SAGPY (Sagittaria pygmaea, L.; 0.2500 kg/ha): 1.0
SAGPY herbicidal effect rating (Sagittaria pygmaea, L.; Rate 0.0313 kg/ha): 0.0
SAGPY herbicidal effect rating (Sagittaria pygmaea, L.; Rate 0.0625 kg/ha): 0.0
SAGPY herbicidal effect rating (Sagittaria pygmaea, L.; Rate 0.1250 kg/ha): 0.0
herbicidal effect rating, CYPSE ([2]; 0.2500 kg/ha): 6.0
CYPSE herbicidal effect rating ([2]; Rate 0.0313 kg/ha): 0.0
CYPSE herbicidal effect rating ([2]; Rate 0.0625 kg/ha): 0.0
CYPSE herbicidal effect rating ([2]; Rate 0.1250 kg/ha): 1.0
herbicidal effect rating, ECHORC ([3]; 0.2500 kg/ha): 5.5
ECHORC herbicidal effect rating ([3]; Rate 0.0313 kg/ha): 1.0
ECHORC herbicidal effect rating ([3]; Rate 0.0625 kg/ha): 1.5
ECHORC herbicidal effect rating ([3]; Rate 0.1250 kg/ha): 2.0
herbicidal effect rating, CYPIR (Cyperus iria; 0.2500 kg/ha): 8.5
CYPIR herbicidal effect rating (Cyperus iria; Rate 0.0313 kg/ha): 5.5
CYPIR herbicidal effect rating (Cyperus iria; Rate 0.0625 kg/ha): 6.5
CYPIR herbicidal effect rating (Cyperus iria; Rate 0.1250 kg/ha): 8.5
herbicidal effect rating, MOOVA ([4]; 0.2500 kg/ha): 7.5
MOOVA herbicidal effect rating ([4]; Rate 0.0313 kg/ha): 4.0
MOOVA herbicidal effect rating ([4]; Rate 0.0625 kg/ha): 4.5
MOOVA herbicidal effect rating ([4]; Rate 0.1250 kg/ha): 5.5

CCSC(=O)c1nsc2ccc(-n3c(=O)cc(C(F)(F)F)n(C)c3=O)cc12 [Example 422, 1,2-Benzisothiazole-3-thiocarboxylic acid, 5-[3,6-dihydro-3-methyl-2,6-dioxo-4-(trifluoromethyl)-1(2H)-pyrimidinyl]-, S-ethyl ester]
ORYSAT ([1]; 0.0320 kg/ha): 0.0
ORYSAT ([1]; 0.0620 kg/ha): 0.0
ORYSAT ([1]; 0.1250 kg/ha): 2.0
ORYSAT ([1]; 0.2500 kg/ha): 3.0
SAGPY (Sagittaria pygmaea, L.; 0.0320 kg/ha): 0.0
SAGPY (Sagittaria pygmaea, L.; 0.0620 kg/ha): 0.0
SAGPY (Sagittaria pygmaea, L.; 0.1250 kg/ha): 3.0
SAGPY (Sagittaria pygmaea, L.; 0.2500 kg/ha): 6.0
CYPSE ([2]; 0.0320 kg/ha): 0.0
CYPSE ([2]; 0.0620 kg/ha): 5.0
ECHORC ([3]; 0.0320 kg/ha): 5.0
ECHORC ([3]; 0.0620 kg/ha): 6.0
ECHORC ([3]; 0.1250 kg/ha): 9.0
ECHORC ([3]; 0.2500 kg/ha): 9.0
CYPIR (Cyperus iria; 0.0320 kg/ha): 5.0
CYPIR (Cyperus iria; 0.0620 kg/ha): 6.0
CYPIR (Cyperus iria; 0.1250 kg/ha): 9.0
CYPIR (Cyperus iria; 0.2500 kg/ha): 9.0
MOOVA ([4]; 0.0320 kg/ha): 7.0
MOOVA ([4]; 0.0620 kg/ha): 9.0
MOOVA ([4]; 0.1250 kg/ha): 9.0
MOOVA ([4]; 0.2500 kg/ha): 9.0

Cn1c(C(F)(F)F)cc(=O)n(-c2ccc3snc(C(=O)Oc4ccccc4)c3c2)c1=O [Example 319, 1,2-Benzisothiazole-3-carboxylic acid, 5-[3,6-dihydro-3-methyl-2,6-dioxo-4-(trifluoromethyl)-1(2H)-pyrimidinyl]-, phenyl ester]
herbicidal effect rating ORYSAT [1, 6]: 5.0
herbicidal effect rating ORYSAT [1, 7]: 6.0
herbicidal effect rating ORYSAT [1, 5]: 6.0
herbicidal effect rating ORYSAT [1, 8]: 7.0
herbicidal effect rating, SAGPY (Sagittaria pygmaea, L.; Rate 0.0320 kg/ha): 6.0
herbicidal effect rating, SAGPY (Sagittaria pygmaea, L.; Rate 0.0620 kg/ha): 6.0
herbicidal effect rating, SAGPY (Sagittaria pygmaea, L.; Rate 0.1250 kg/ha): 9.0
herbicidal effect rating, SAGPY (Sagittaria pygmaea, L.; Rate 0.2500 kg/ha): 9.0
herbicidal effect rating, CYPSE ([2]; Rate 0.0320 kg/ha): 4.0
herbicidal effect rating, CYPSE ([2]; Rate 0.0620 kg/ha): 6.0
herbicidal effect rating, CYPSE ([2]; Rate 0.1250 kg/ha): 6.0
herbicidal effect rating, CYPSE ([2]; Rate 0.2500 kg/ha): 6.0
herbicidal effect rating, ECHORC ([3]; Rate 0.0320 kg/ha): 3.0
herbicidal effect rating, ECHORC ([3]; Rate 0.0620 kg/ha): 7.0
herbicidal effect rating, ECHORC ([3]; Rate 0.1250 kg/ha): 9.0
herbicidal effect rating, ECHORC ([3]; Rate 0.2500 kg/ha): 9.0
herbicidal effect rating, CYPIR (Cyperus iria; Rate 0.0320 kg/ha): 3.0
herbicidal effect rating, CYPIR (Cyperus iria; Rate 0.0620 kg/ha): 9.0
herbicidal effect rating, CYPIR (Cyperus iria; Rate 0.1250 kg/ha): 9.0
herbicidal effect rating, CYPIR (Cyperus iria; Rate 0.2500 kg/ha): 9.0
herbicidal effect rating, MOOVA ([4]; Rate 0.0320 kg/ha): 9.0
herbicidal effect rating, MOOVA ([4]; Rate 0.0620 kg/ha): 9.0
herbicidal effect rating, MOOVA ([4]; Rate 0.1250 kg/ha): 9.0
herbicidal effect rating, MOOVA ([4]; Rate 0.2500 kg/ha): 9.0

COC(=O)/C=C/c1nsc2ccc(-n3c(=O)cc(C(F)(F)F)n(C)c3=O)cc12 [Example 279, 1,2-Benzisothiazole-3-acrylic acid, 5-[3,6-dihydro-3-methyl-2,6-dioxo-4-(trifluoromethyl)-1(2H)-pyrimidinyl]-, methyl ester, (E)-]
ORYSAT herbicidal effect rating [1, 6]: 2.0
ORYSAT herbicidal effect rating [1, 7]: 3.0
ORYSAT herbicidal effect rating [1, 5]: 4.0
ORYSAT herbicidal effect rating [1, 8]: 4.0
ORYSAT herbicidal effect rating ([1]; Rate 0.5000 kg/ha, rated three to four weeks after treatment): 6.0
SAGPY herbicidal effect rating (Sagittaria pygmaea, L.; Rate 0.0320 kg/ha): 0.0
SAGPY herbicidal effect rating (Sagittaria pygmaea, L.; Rate 0.0620 kg/ha): 0.0
SAGPY herbicidal effect rating (Sagittaria pygmaea, L.; Rate 0.1250 kg/ha): 0.0
SAGPY herbicidal effect rating (Sagittaria pygmaea, L.; Rate 0.2500 kg/ha): 4.0
SAGPY herbicidal effect rating (Sagittaria pygmaea, L.; Rate 0.5000 kg/ha): 9.0
CYPSE herbicidal effect rating ([2]; Rate 0.0320 kg/ha): 0.0
CYPSE herbicidal effect rating ([2]; Rate 0.0620 kg/ha): 0.0
CYPSE herbicidal effect rating ([2]; Rate 0.1250 kg/ha): 0.0
CYPSE herbicidal effect rating ([2]; Rate 0.5000 kg/ha): 5.0
ECHORC herbicidal effect rating ([3]; Rate 0.0320 kg/ha): 0.0
ECHORC herbicidal effect rating ([3]; Rate 0.0620 kg/ha): 5.7
ECHORC herbicidal effect rating ([3]; Rate 0.1250 kg/ha): 6.1
ECHORC herbicidal effect rating ([3]; Rate 0.2500 kg/ha): 6.0
ECHORC herbicidal effect rating ([3]; Rate 0.5000 kg/ha): 7.0
CYPIR herbicidal effect rating (Cyperus iria; Rate 0.0320 kg/ha): 0.0
CYPIR herbicidal effect rating (Cyperus iria; Rate 0.0620 kg/ha): 0.0
CYPIR herbicidal effect rating (Cyperus iria; Rate 0.1250 kg/ha): 2.0
CYPIR herbicidal effect rating (Cyperus iria; Rate 0.2500 kg/ha): 6.0
CYPIR herbicidal effect rating (Cyperus iria; Rate 0.5000 kg/ha): 9.0
MOOVA herbicidal effect rating ([4]; Rate 0.1250 kg/ha): 8.0
MOOVA herbicidal effect rating ([4]; Rate 0.2500 kg/ha): 9.0
MOOVA herbicidal effect rating ([4]; Rate 0.5000 kg/ha): 9.0

Cn1c(C(F)(F)F)cc(=O)n(-c2ccc3snc(C(=O)NS(=O)(=O)CCl)c3c2)c1=O [Example 324, 1,2-Benzisothiazole-3-carboxamide, N-[(chloromethyl)sulfonyl]-5-[3,6-dihydro-3-methyl-2,6-dioxo-4-(trifluoromethyl)-1(2H)-pyrimidinyl]-]
herbicidal effect rating ORYSAT [1, 6]: 3.0
herbicidal effect rating ORYSAT [1, 7]: 4.0
herbicidal effect rating ORYSAT [1, 5]: 7.0
herbicidal effect rating ORYSAT [1, 8]: 9.0
herbicidal effect rating, SAGPY (Sagittaria pygmaea, L.; Rate 0.0320 kg/ha): 0.0
herbicidal effect rating, SAGPY (Sagittaria pygmaea, L.; Rate 0.0620 kg/ha): 3.0
herbicidal effect rating, SAGPY (Sagittaria pygmaea, L.; Rate 0.1250 kg/ha): 9.0
herbicidal effect rating, SAGPY (Sagittaria pygmaea, L.; Rate 0.2500 kg/ha): 9.0
herbicidal effect rating, CYPSE ([2]; Rate 0.0320 kg/ha): 0.0
herbicidal effect rating, CYPSE ([2]; Rate 0.0620 kg/ha): 0.0
herbicidal effect rating, CYPSE ([2]; Rate 0.1250 kg/ha): 3.0
herbicidal effect rating, CYPSE ([2]; Rate 0.2500 kg/ha): 7.0
herbicidal effect rating, ECHORC ([3]; Rate 0.0320 kg/ha): 0.0
herbicidal effect rating, ECHORC ([3]; Rate 0.0620 kg/ha): 4.0
herbicidal effect rating, ECHORC ([3]; Rate 0.1250 kg/ha): 5.0
herbicidal effect rating, ECHORC ([3]; Rate 0.2500 kg/ha): 6.0
herbicidal effect rating, CYPIR (Cyperus iria; Rate 0.0320 kg/ha): 9.0
herbicidal effect rating, CYPIR (Cyperus iria; Rate 0.0620 kg/ha): 9.0
herbicidal effect rating, CYPIR (Cyperus iria; Rate 0.1250 kg/ha): 9.0
herbicidal effect rating, CYPIR (Cyperus iria; Rate 0.2500 kg/ha): 9.0
herbicidal effect rating, MOOVA ([4]; Rate 0.0320 kg/ha): 9.0
herbicidal effect rating, MOOVA ([4]; Rate 0.0620 kg/ha): 9.0
herbicidal effect rating, MOOVA ([4]; Rate 0.1250 kg/ha): 9.0
herbicidal effect rating, MOOVA ([4]; Rate 0.2500 kg/ha): 9.0
